Data on ten molecules can be found in patent US6013244A, “21-(2-oxo-tetrahydrofuran)-thio pregnane derivatives, a process for their production and pharmaceutical compositions containing them” (Glaxo Wellcome Inc., priority 1995, dated 2000).

By pEC50 is commonly meant the negative decadic logarithm of the EC50, by convention in mol/L. Read a high pEC50 as a small EC50.

The test system of series [1] is Adrenocorticotrophic hormone (ACTH). The experiment in a line: Systemic Effects - ACTH Suppression in Adrenalectomised Rats. It counts as in vivo. Conditions: adrenalectomised male CD rats, plasma. Here is the method: (II) Systemic Effects--ACTH Suppression in Adrenalectomised Rats
Male CD rats (90-120 g) were adrenalectomised under Isoflurane anaesthesia and drinking water was supplemented with 0.9% saline. Four days later the animals receive a single intravenous dose of compound dissolved in DMA/PEG-200/distilled water (1:6:3) (0.2 ml) at 10 am. At 2 h and 4 h afterwards animals are sacrificed by administration of Euthetal and blood samples are taken by intra-cardiac puncture and collected into heparinised tubes. The samples are centrifuged (20 minutes at 1000 RPM at 4 deg C), the plasma is collected and assayed by Radioimmunoassay (RIA) for Adrenocorticotrophic hormone (ACTH) using a DPC double antibody RIA kit. Intact and vehicle control groups for each time point assessed were included in each experiment in order to account for diurnal variation in ACTH and effects of vehicle. Results are calculated with respect to the RIA standard curve and expressed as ACTH pg/ml plasma, allowing percentage reduction in ACTH to be calculated.

The subject of series [2] is lung eosinophilia. The experiment in a line: Inhibition of lung eosinophilia in Brown Norway rats. To be noted: OVA-sensitised male Brown Norway rats, lung lavage on day 16. It counts as in vivo. Here is the method:
(i) Anti-inflammatory Activity--Inhibition of lung eosinophilia in Brown Norway rats
Male Brown norway rats (150-180 g) are sensitised with 1 ml intra-peritoneally (ip) containing 10 mg Al (OH)3 +1 mg Ovalbumin (OVA) on day 1. On day 7 each rat received 1 ml ip containing 10 mg Al(OH)3 +100 ug OVA. On day 14, each rat received an intratracheal (IT) dose of compound or vehicle (0.2 ml), under isoflurane anaesthesia. Compounds are suspended in 0.9% saline/0.2% Tween 80. 4 h after compound administration, each animal receives 400 ug OVA in saline IT (0.2 ml). On day 16, animals are killed and the lungs lavaged with 5 mls of lavage fluid (10 mM EDTA, phosphate buffered saline (pH 7.4), 5 units heparin/ml, 0.1% BSA). The samples are centrifuged at 1000 RPM for 10 minutes. The supernatant is removed and the cells resuspended in 0.5 ml lavage fluid. Total cells are counted with a Sysmex counter. Cytospin slides are prepared using 75 ul of the cell suspension and the cells are stained with May-Grunwald stain. Differential cell counts are performed using a microscope. Numbers of eosinophils are calculated per ul of lavage fluid per rat allowing percentage reduction in eosinophilia to be calculated.

The target of series [3] is T1, Human Glucocorticoid Receptor (Homo sapiens, UniProt P04150).
T1 construct: endogenous in cells; host or cells: HeLa cells stably transfected with the MMTV-LTR/sPAP reporter
T1 sequence (P04150 1-777): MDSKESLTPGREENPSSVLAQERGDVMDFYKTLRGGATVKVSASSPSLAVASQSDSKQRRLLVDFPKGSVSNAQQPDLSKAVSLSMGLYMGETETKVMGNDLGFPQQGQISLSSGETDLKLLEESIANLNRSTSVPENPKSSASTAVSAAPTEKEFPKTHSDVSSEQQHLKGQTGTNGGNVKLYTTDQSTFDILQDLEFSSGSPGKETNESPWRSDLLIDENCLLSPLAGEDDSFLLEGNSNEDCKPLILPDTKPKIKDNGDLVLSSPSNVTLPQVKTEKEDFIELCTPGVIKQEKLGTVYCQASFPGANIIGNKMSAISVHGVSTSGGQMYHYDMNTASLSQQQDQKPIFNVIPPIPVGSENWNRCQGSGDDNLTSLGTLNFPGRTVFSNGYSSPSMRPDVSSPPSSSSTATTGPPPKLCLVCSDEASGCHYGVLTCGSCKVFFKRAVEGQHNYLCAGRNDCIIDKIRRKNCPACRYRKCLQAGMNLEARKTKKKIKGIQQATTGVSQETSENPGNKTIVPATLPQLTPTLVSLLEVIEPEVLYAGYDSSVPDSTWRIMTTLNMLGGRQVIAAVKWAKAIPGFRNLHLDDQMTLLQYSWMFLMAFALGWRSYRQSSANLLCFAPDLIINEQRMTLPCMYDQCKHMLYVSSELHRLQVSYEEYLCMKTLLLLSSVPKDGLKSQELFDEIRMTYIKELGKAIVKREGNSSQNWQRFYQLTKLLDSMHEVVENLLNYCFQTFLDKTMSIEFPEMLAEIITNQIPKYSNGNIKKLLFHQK
Put plainly: functional in vitro glucocorticoid assay, MMTV-sPAP reporter gene in transfected Hela cells. It counts as cell-based. Here is the method:
The functional assay used was a modification of the method described by T. S Berger et al, of J. of Steroid Biochem. Molec.
Thus, Hela cells were stably transfected with a detectable reporter gene (secreted placental alkaline phosphatase, sPAP) under the control of a glucocorticoid response promoter (the LTR of the mouse mammary tumour virus, MMTV). Various concentrations of standard (dexamethasone) or compounds of the invention were incubated with transfected Hela cells for 72 hours. At the end of the incubation, substrate ([…]) for sPAP was added and the product measured by a spectrophotometric method. Increased absorbance reflected increased sPAP transcription and concentration-response lines were constructed such that EC50 -values could be estimated.
A general note: In a reporter assay the amount or activity of a reporter protein is the signal.

The mark [4] stands for this setting: dose 6.25 μg single intravenous.

pEC50: −log10 of the molar value. A value given as a limit tells only on which side of the number the result lay.

On to `CC1(C)O[C@@H]2C[C@H]3[C@@H]4C[C@H](F)C5=CC(=O)C=C[C@]5(C)[C@@]4(F)[C@@H](O)C[C@]3(C)[C@]2(C(=O)CS[C@H]2CCOC2=O)O1` (single isomer, unassigned) [Example 3 Isomer A, 6α,9α-Difluoro-11β-hydroxy-16α,17α-isopropylidenedioxy-21-(2-oxo-tetrahydro-furan-3S-yl-sulfanyl)-pregna-1,4-diene-3,20-dione], for which the “% Reduction in ACTH at 2 h” value in series [1] (dose 500 μg single intravenous) was 16%. Besides, in series [1] (dose 500 μg single intravenous), the “% Reduction in ACTH at 4 h” value turned out to be 15%. The “% Reduction in Eosinophilia” value in series [2] (dose 250 μg intratracheal) is reported as 74%; in series [2] (dose 750 μg intratracheal), 97%.

`CCCC1O[C@@H]2C[C@H]3[C@@H]4CCC5=CC(=O)C=C[C@]5(C)[C@H]4[C@@H](O)C[C@]3(C)[C@]2(C(=O)CSC2CCOC2=O)O1` (single isomer, unassigned) [Example 9 isomer A, 16α,17α-Butylidenedioxy-11β-hydroxy-21-(2-oxo-tetrahydrofuran-3-yl-sulfanyl)-pregna-1,4-diene-3,20-dione] showed a pEC50 in series [3] of more than 6.22.

As for `CCCC1O[C@@H]2C[C@H]3[C@@H]4CCC5=CC(=O)C=C[C@]5(C)[C@H]4[C@@H](O)C[C@]3(C)[C@]2(C(=O)CO)O1` (stereo partly drawn) [Budesonide, reference compound], in series [1] (setting [4]), the “% Reduction in ACTH at 2 h” value is reported as 61% and the “% Reduction in ACTH at 4 h” value is on record as 32%. The “% Reduction in Eosinophilia” value in series [2] (dose 250 μg intratracheal) was found to be 82%.

As for `CCC(=O)O[C@]1(C(=O)CSC2CCOC2=O)[C@H](C)C[C@H]2[C@@H]3C[C@H](F)C4=CC(=O)C=C[C@]4(C)[C@@]3(F)[C@@H](O)C[C@@]21C` (stereo partly drawn) [Example 1, 6α,9α-Difluoro-11β-hydroxy-16α-methyl-21-(2-oxo-tetrahydro-furan-3-yl-sulfanyl)-17α-propionyloxy-pregna-1,4-diene-3,20-dione], the pEC50 in series [3] was more than 6.22.

In turn, `CCC(=O)O[C@]1(C(=O)CSC2CCOC2=O)[C@H](C)C[C@H]2[C@@H]3C[C@H](F)C4=CC(=O)CC[C@]4(C)[C@@]3(F)[C@@H](O)C[C@@]21C` (stereo partly drawn) [Example 2, 6α,9α-Difluoro-11β-hydroxy-16α-methyl-21-(2-oxo-tetrahydro-furan-3-yl-sulfanyl)-17α-propionyloxy-pregn-4-ene-3,20-dione] gave a pEC50 in series [3] of more than 6.22.

In series [3], `CC1(C)O[C@@H]2C[C@H]3[C@@H]4C[C@H](F)C5=CC(=O)CC[C@]5(C)[C@@]4(F)[C@@H](O)C[C@]3(C)[C@]2(C(=O)CSC2CCOC2=O)O1` (stereo partly drawn) [Example 6, 6α,9α-Difluoro-11β-hydroxy-16α,17α-isopropylidenedioxy-21-(2-oxo-tetrahydro-furan-3-yl-sulfanyl)-pregn-4-ene-3,20-dione] gave a pEC50 of more than 6.22.

In series [3], `CCC[C@@H]1O[C@@H]2C[C@H]3[C@@H]4C[C@H](F)C5=CC(=O)C=C[C@]5(C)[C@@]4(F)[C@@H](O)C[C@]3(C)[C@]2(C(=O)CSC2CCOC2=O)O1` (stereo partly drawn) [Example 7, 16α,17α-(R-Butylidenedioxy)-6α,9α-difluoro-11β-hydroxy-21-(2-oxo-tetrahydro-furan-3-yl-sulfanyl)-pregna-1,4-diene-3,20-dione] showed a pEC50 of more than 6.22.

Turning to `CCC[C@@H]1O[C@@H]2C[C@H]3[C@@H]4C[C@H](F)C5=CC(=O)CC[C@]5(C)[C@@]4(F)[C@@H](O)C[C@]3(C)[C@]2(C(=O)CSC2CCOC2=O)O1` (stereo partly drawn) [Example 8, 16α,17α-(R-Butylidenedioxy)-6α,9α-difluoro-11β-hydroxy-21-(2-oxo-tetrahydro-furan-3-yl-sulfanyl)-pregn-4-ene-3,20-dione], the pEC50 in series [3] is more than 6.22.

Consider `CC1(C)O[C@@H]2C[C@H]3[C@@H]4C[C@H](F)C5=CC(=O)C=C[C@]5(C)[C@@]4(F)[C@@H](O)C[C@]3(C)[C@]2(C(=O)CSC2COC(=O)C2)O1` (stereo partly drawn) [Example 10, 6α,9α-Difluoro-11β-hydroxy-16α,17α-isopropylidenedioxy-21-(2-oxo-tetrahydro-furan4-yl-sulfanyl)-pregna-1,4-diene-3,20-dione], for which the pEC50 in series [3] was more than 6.22.

For the molecule `CCC[C@@H]1O[C@@H]2C[C@H]3[C@@H]4C[C@H](F)C5=CC(=O)CC[C@]5(C)[C@@]4(F)[C@@H](O)C[C@]3(C)[C@]2(C(=O)CSC2COC(=O)C2)O1` (stereo partly drawn) [Example 11, 16α,17α-(R-Butylidenedioxy)-6α,9α-difluoro-11β-hydroxy-21-(2-oxo-tetrahydro-furan-4-yl-sulfanyl)-pregn-4-ene-3,20-dione], the pEC50 in series [3] was more than 6.22.
